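Cells were grown in 96-well plates and exposed to each compound for 48 hours at five concentrations; endpoints were interpolated linearly between bracketing concentrations, or set to the highest concentration if not reached. GI50 is the concentration that inhibits growth by half. TGI denotes the concentration required for complete inhibition of growth.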
How the values were obtained:
Assay in all cases: inhibition of tumour cell growth, NCI panel, 48 h
TK-10 renal = tested on: TK-10 renal
U251 CNS = tested on: U251 CNS
HL-60(TB) leukemia = tested on: HL-60(TB) leukemia
NCI-H226 lung = tested on: NCI-H226 lung
OVCAR-8 ovarian = tested on: OVCAR-8 ovarian
HCT-15 colon = tested on: HCT-15 colon
KM12 colon = tested on: KM12 colon
EKVX NSCLC = tested on: EKVX NSCLC
M14 melanoma = tested on: M14 melanoma
MOLT-4 leukemia = tested on: MOLT-4 leukemia

With Cc1nc(Sc2nc3ccc([N+](=O)[O-])cc3s2)sc1C as the compound, how does the GI50 (TK-10 renal) read?
Its GI50 is 2.05 µM.

And the TGI (TK-10 renal)?
The TGI was 7.87 µM.

And the GI50 (U251 CNS)?
Its GI50 is 1.99 µM.

What about the TGI (U251 CNS) of the same compound?
Its TGI is 7.9 µM.

What about the GI50 (HL-60(TB) leukemia) of the same compound?
Its GI50 is 1.68 µM.

What about the TGI (HL-60(TB) leukemia) of the same compound?
The TGI was 4.6 µM.

What about the GI50 (NCI-H226 lung) of the same compound?
Its GI50 is 1.07 µM.

What about the TGI (NCI-H226 lung) of the same compound?
The TGI was 2.84 µM.

What about the GI50 (OVCAR-8 ovarian) of the same compound?
Its GI50 is 1.79 µM.

What about the TGI (OVCAR-8 ovarian) of the same compound?
Its TGI is 7.12 µM.

And the GI50 (HCT-15 colon)?
The GI50 was 0.731 µM.

What about the TGI (HCT-15 colon) of the same compound?
Its TGI is 3.51 µM.

What about the GI50 (KM12 colon) of the same compound?
The GI50 was 3.89 µM.

And the TGI (KM12 colon)?
The TGI was 14.6 µM.

And the GI50 (EKVX NSCLC)?
Its GI50 is 11.6 µM.

And the TGI (EKVX NSCLC)?
Its TGI is 24.2 µM.

And the GI50 (M14 melanoma)?
Its GI50 is 1.82 µM.

What about the TGI (M14 melanoma) of the same compound?
The TGI was 4.14 µM.

What about the GI50 (MOLT-4 leukemia) of the same compound?
Its GI50 is 0.288 µM.

What about the TGI (MOLT-4 leukemia) of the same compound?
Its TGI is 3.45 µM.

With CCOC(=O)C#Cc1c(C(=O)OCC)nnn1[C@@H]1O[C@H](CO)[C@H]2OC3(CCCCC3)O[C@H]21 as the compound, how does the GI50 (TK-10 renal) read?
The GI50 was 1.79 µM.

What about the TGI (TK-10 renal) of the same compound?
The TGI was 3.28 µM.

And the GI50 (U251 CNS)?
Its GI50 is 11.2 µM.

What about the TGI (U251 CNS) of the same compound?
The TGI was 23.2 µM.

And the GI50 (HL-60(TB) leukemia)?
Its GI50 is 1.87 µM.

What about the TGI (HL-60(TB) leukemia) of the same compound?
The TGI was 5.88 µM.

And the GI50 (NCI-H226 lung)?
Its GI50 is 1.72 µM.

What about the TGI (NCI-H226 lung) of the same compound?
Its TGI is 3.17 µM.

And the GI50 (OVCAR-8 ovarian)?
Its GI50 is 3.81 µM.

What about the TGI (OVCAR-8 ovarian) of the same compound?
The TGI was 13.2 µM.

What about the GI50 (HCT-15 colon) of the same compound?
Its GI50 is 1.87 µM.

What about the TGI (HCT-15 colon) of the same compound?
Its TGI is 3.53 µM.

What about the GI50 (KM12 colon) of the same compound?
The GI50 was 12.2 µM.

What about the TGI (KM12 colon) of the same compound?
Its TGI is 27 µM.

What about the GI50 (EKVX NSCLC) of the same compound?
The GI50 was 15.6 µM.

What about the TGI (EKVX NSCLC) of the same compound?
Its TGI is 30.1 µM.

And the GI50 (M14 melanoma)?
Its GI50 is 2.67 µM.

And the TGI (M14 melanoma)?
Its TGI is 7.6 µM.

And the GI50 (MOLT-4 leukemia)?
Its GI50 is 1.95 µM.

And the TGI (MOLT-4 leukemia)?
The TGI was 5.42 µM.

With CCn1c(=N)sc2nc3ccccc3n2c1=O as the compound, how does the TGI (TK-10 renal) read?
The TGI was > 100 µM.

What about the TGI (U251 CNS) of the same compound?
The TGI was > 100 µM.

And the TGI (HL-60(TB) leukemia)?
The TGI was > 100 µM.

And the TGI (NCI-H226 lung)?
Its TGI is > 100 µM.

What about the TGI (OVCAR-8 ovarian) of the same compound?
Its TGI is > 100 µM.

And the TGI (HCT-15 colon)?
The TGI was > 100 µM.

What about the TGI (KM12 colon) of the same compound?
The TGI was > 100 µM.

And the TGI (EKVX NSCLC)?
Its TGI is > 100 µM.

And the TGI (M14 melanoma)?
Its TGI is > 100 µM.

And the TGI (MOLT-4 leukemia)?
The TGI was > 100 µM.

What does the source list for CC(=O)O[C@H](C[C@H](C(C)C)N(C)C(=O)[C@@H](NC(=O)[C@H]1CCCCN1C)C(C)C)c1cccc(C(=O)N[C@@H](Cc2ccccc2)C[C@H](C)C(=O)O)n1?
GI50 (U251 CNS): 0.0353 µM; TGI (U251 CNS): > 25 µM; GI50 (HL-60(TB) leukemia): 0.0069 µM; TGI (HL-60(TB) leukemia): 0.0321 µM; GI50 (NCI-H226 lung): 0.067 µM; TGI (NCI-H226 lung): 5.36 µM; GI50 (OVCAR-8 ovarian): 0.0475 µM; TGI (OVCAR-8 ovarian): > 25 µM; GI50 (HCT-15 colon): 0.219 µM; TGI (HCT-15 colon): > 25 µM; GI50 (KM12 colon): 0.0262 µM; TGI (KM12 colon): > 25 µM; GI50 (EKVX NSCLC): 0.255 µM; TGI (EKVX NSCLC): > 25 µM; GI50 (M14 melanoma): 0.0237 µM; GI50 (MOLT-4 leukemia): 0.0219 µM; TGI (MOLT-4 leukemia): > 25 µM

What does the source list for COC(=O)/C(=C/c1ccc(OC)cc1)C(C(=O)O)=C1CCCCC1?
TGI (TK-10 renal): > 100 µM; TGI (U251 CNS): > 100 µM; TGI (HL-60(TB) leukemia): > 100 µM; TGI (NCI-H226 lung): > 100 µM; TGI (OVCAR-8 ovarian): > 100 µM; TGI (HCT-15 colon): > 100 µM; TGI (KM12 colon): > 100 µM; TGI (EKVX NSCLC): > 100 µM; TGI (M14 melanoma): > 100 µM; TGI (MOLT-4 leukemia): > 100 µM

How did the TGI (TK-10 renal) turn out when O=C1C=C(Nc2ccc(S(=O)(=O)Nc3ncccn3)cc2)c2ccccc2C1=O was run?
Its TGI is > 100 µM.

And the TGI (U251 CNS)?
Its TGI is 31.5 µM.

What about the TGI (HL-60(TB) leukemia) of the same compound?
Its TGI is 72.7 µM.

And the TGI (NCI-H226 lung)?
Its TGI is 56.8 µM.

And the TGI (OVCAR-8 ovarian)?
Its TGI is 42.4 µM.

And the TGI (HCT-15 colon)?
The TGI was 47 µM.

What about the TGI (KM12 colon) of the same compound?
The TGI was 38.6 µM.

And the TGI (EKVX NSCLC)?
Its TGI is 67.1 µM.

What about the TGI (M14 melanoma) of the same compound?
Its TGI is 34.1 µM.

What about the TGI (MOLT-4 leukemia) of the same compound?
Its TGI is > 100 µM.

Which results are given for CCOC(=O)C1=C(C(=O)OCC)C2(c3ccccc3)N(O1)c1ccccc1C2(C)C (centres undefined)?
TGI (TK-10 renal): > 100 µM; TGI (U251 CNS): > 100 µM; TGI (HL-60(TB) leukemia): 53 µM; TGI (NCI-H226 lung): > 100 µM; TGI (OVCAR-8 ovarian): > 100 µM; TGI (KM12 colon): > 100 µM; TGI (EKVX NSCLC): > 100 µM; TGI (M14 melanoma): > 100 µM; TGI (MOLT-4 leukemia): > 100 µM

For C=C1C(=O)O[C@H]2[C@H]1CC/C(COC(=O)NCCc1cccc(OC)c1)=C\CC[C@@]1(C)O[C@@H]21, which GI50 (TK-10 renal) is on record?
The GI50 was 1.61 µM.

And the TGI (TK-10 renal)?
Its TGI is 3.25 µM.

What about the GI50 (HL-60(TB) leukemia) of the same compound?
The GI50 was 1.36 µM.

And the TGI (HL-60(TB) leukemia)?
Its TGI is 4.34 µM.

And the GI50 (NCI-H226 lung)?
The GI50 was 1.57 µM.

What about the TGI (NCI-H226 lung) of the same compound?
Its TGI is 3.6 µM.

What about the GI50 (OVCAR-8 ovarian) of the same compound?
Its GI50 is 2.26 µM.

What about the TGI (OVCAR-8 ovarian) of the same compound?
Its TGI is 8.03 µM.

What about the GI50 (HCT-15 colon) of the same compound?
Its GI50 is 1.02 µM.

What about the TGI (HCT-15 colon) of the same compound?
The TGI was 2.62 µM.

What about the GI50 (KM12 colon) of the same compound?
The GI50 was 4.27 µM.

What about the TGI (KM12 colon) of the same compound?
The TGI was 15.6 µM.

What about the GI50 (EKVX NSCLC) of the same compound?
The GI50 was 1.78 µM.

And the TGI (EKVX NSCLC)?
The TGI was 4.25 µM.

What about the GI50 (M14 melanoma) of the same compound?
Its GI50 is 1.29 µM.

What about the TGI (M14 melanoma) of the same compound?
The TGI was 2.92 µM.

What about the GI50 (MOLT-4 leukemia) of the same compound?
The GI50 was 2.09 µM.

What about the TGI (MOLT-4 leukemia) of the same compound?
The TGI was 5 µM.

From PubChem BioAssay (NCI)
